Experiments:
[1] = Fluorescence titration with ZnCl2 in aqueous/organic mixed solvent (1:9 MOPS buffer pH 7.2/CH3CN); format: binding; conditions: λex 400 nm
Protocol: FIG. 9 is a graph depicting emission spectra for the titration of zinc(II) ion indicator (4) (2.5 μM) with ZnCl2 (0-22 μM) in water-CH3CN (1:9) mixture (MOPES buffer, 10 mM, pH=7.2, λex=400 nm).
The titration experiments using zinc(II) ion indicator (4) were also carried out in an aqueous/organic mixed solvent (1:9 MOPS buffer (pH 7.2)/CH3CN). […] (FIG. 9). Comparing to the observations in CH3CN, the fluorescence is rather dim. The loss of fluorescence can be explained by the hydrogen bonding interaction between the protic solvent and the carbonyl groups on NDI, which provides a non-radiative deactivation pathway. See F. Würthner, S. Ahmed, C. Thalacker and T. Debaerdemaeker, Chem. Eur. J., 2002, 8, 4742. […] By extension, the fluorescence of zinc(II) ion indicators (4) and (5) would not be affected by the fluctuations of pH within the physiological range.

[2] = system: mitochondria of HeLa (S3) cells transfected with mCerulean3 TOMM-20; test: Colocalization by confocal fluorescence microscopy with mCerulean3 TOMM-20; format: cell-based
Protocol: FIGS. 13A through 13F are confocal fluorescence images of living HeLa (S3) cells transfected with mCerulean3 TOMM-20 that were incubated with zinc(II) ion indicator (5) (1.8 μM, A-C) and zinc(II) ion indicator (4) (6.0 μM, D-F) for 30 min. FIGS. 13A (zinc(II) ion indicator (5)) and 13D (zinc(II) ion indicator (4)) depict the green channel, λex 405 nm, λem 425-475 nm. FIGS. 13B (zinc(II) ion indicator (5)) and 13E (zinc(II) ion indicator (4)) depict the red channel, λex 543 nm, λem 580-680 nm. FIGS. 13C (zinc(II) ion indicator (5)) and 13F (zinc(II) ion indicator (4)) depict the merged image. Scale bar: 10 μm.
FIGS. 14A through 14F are confocal fluorescence images of live HeLa (S3) cells transfected with mCer3 TOMM20 that were incubated with FRET acceptor compound (3) (9.0 μM, A-C) and FRET acceptor compound (2) (52 μM, D-F) for 30 min. FIGS. 14A (FRET acceptor compound (3)) and 14D (FRET acceptor compound (2)) depict the green channel, λex 405 nm, λem 425-475 nm. FIGS. 14B (FRET acceptor compound (3)) and […] (FRET acceptor compound (2)) depict the red channel, λex 543 nm, λem 580-680 nm. FIGS. 14C (FRET acceptor compound (3)) and […] (FRET acceptor compound (2)) depict the merged image. Scale bar: 10 μm.
The colocalization properties of red-emitting compounds (2-5) were studied using HeLa (S3) cells transfected with mCerulean3 TOMM-20, a cyan fluorescent protein (CFP) fused with a mitochondrial targeting sequence whose emission is shown in the green channel. See FIG. 13A for emission spectrum from cells incubated with TPP-containing zinc(II) ion indicator (5), and see FIG. 13D for emission spectrum from cells incubated with zinc(II) ion indicator (4). […] The overall intracellular fluorescence intensity from zinc(II) ion indicator (4) is low, which is consistent with the observed weak fluorescence of the NDI fluorophore in aqueous solutions.
The localization properties of (2-5) were determined via costaining experiments using mCerulean3 TOMM-20, a mitochondrial-specific fusion of the cyan fluorescent protein (CFP) mCerulean3. mCerulean3 is a bright monomeric FP with an emission maximum of 475 nm. HeLa S3 cells were seeded onto Bioptechs Delta-T dishes 48 h prior to experimentation, then transfected about 24 h prior to loading the indicator using an Effectene Transfection Reagent Kit (Qiagen) and 1 μg of DNA. A 1:1 mixture of Dulbecco's modified Eagle's medium and Ham's F-12 (Invitrogen) supplemented with 12.5% fetal bovine serum was used as the culture medium. On the day of experimentation cells were rinsed twice with media and incubated with indicator 5 (1.8 μM) for 30 min. Prior to imaging cells were again rinsed twice with media, then provided with 1 mL of fresh media.
All cells were imaged using an Olympus Fluoview FV1000 confocal laser scanning microscope with an Olympus PLAPO 60× oil-immersion objective (NA=1.4). During experimentation cells were maintained at 37° C. and 5.0% CO2 using a Bioptechs Delta T4 Culture Dish Controller. Individual cells were imaged sequentially in two channels, using a 543 nm Helium-Neon laser line to excite the indicator and a 405 nm diode laser line to excite the FP. Cells were selected by the quality of FP expression, as the indicators tended to load homogenously into the cells. All data was collected using FluoView Software (Olympus). Laser power and detection settings were optimized for each image to fill LUTs. A pinhole size of 200 μm was used for each image. […]

## COCCCNc1cc2c3c(c(NCCOc4ccc(/C=C/c5ccc(-c6ccc(COCCOCCOC)cn6)nc5)cc4)cc4c3c1C(=O)N(CCCOC)C4=O)C(=O)N(CCCOC)C2=O [Compound (4)]
[1]
  fluorescence enhancement on increasing [Zn^2+]: 3 fold
[2]; 6.0 μM, 30 min
  intracellular appearance: forms particulates intracellularly
[2]; 30 min incubation, (5) 1.8 μM, (4) 6.0 μM, (3) 9.0 μM, (2) 52 μM
  colocalization with mitochondrial CFP (mCerulean3 TOMM-20): poor colocalization with the CFP
[2]; red channel λex 543 nm, λem 580-680 nm
  overall intracellular fluorescence intensity: low
